Measured values published in PMC6278366, “Synthesis and Evaluation of Anticancer Activities of Novel C-28 Guanidine-Functionalized Triterpene Acid Derivatives” (Molecules, 2018).
Structures can show the parent of a compound that is named as a salt. Where two headings read alike, the source gives them in different places.

Legend:
[1] = test system: Jurkat (T-lymphoblastic leukemia) cells; experiment: cells; type: cell-based; conditions: for IC50: viable cells; for SI (selectivity towards Jurkat cells): SI = IC50 fibroblasts/IC50 Jurkat cells
Procedure: (§1) Cells (Jurkat, K562, U937, HeLa, HEK293 and normal Fibroblasts) were purchased from Russian Cell Culture Collection (Institute of Cytology of the Russian Academy of Sciences, Saint Petersburg, Russia) and cultured according to standard mammalian tissue culture protocols and sterile technique. Human cell lines HEK293 and HeLa were obtained from the HPA Culture Collections (Salisbury, UK). All cell lines used in the study were tested and shown to be free of mycoplasma and viral contamination.
(§2) Cells were maintained in RPMI 1640 (Jurkat, K562, U937) (Gibco, Thermo Fisher Scientific, Waltham, MA, USA) supplemented with 4 mM glutamine, 10% FBS (Sigma, Burlington, MA, USA) and 100 units/mL penicillin-streptomycin (Sigma). All types of cells were grown in an atmosphere of 5% CO2 at 37 °C. The cells were subcultures at 2–3 days intervals. Adherent cells (HEK293, HeLa, fibroblasts) were suspended using trypsin/EDTA and counted after they have reached 80% confluency. Cells were then seeded in 24 well plates at 5 × 10^4 cells per well and incubated overnight. Jurkat, K562, U937 cells were subcultured at 2 day intervals with a seeding density of 1 × 10^5 cells per 24 well plates in RPMI with 10% FBS.
(§3) Viability (Live/dead) assessment was performed by staining cells with 7-AAD (7-Aminoactinomycin D) (Biolegend, San Diego, CA, USA). Cells were treated of test compounds with six different concentrations (1, 5, 10, 15, 30 and 60 μM). After treatment, cells were harvested, washed 1–2 times with phosphate-buffered saline (PBS) and centrifuged at 400× g for 5 min. Cell pellets were resuspended in 200 μL of flow cytometry staining buffer (PBS without Ca^2+ and Mg^2+, 2.5% FBS) and stained with 5 μL of 7-AAD staining solutionfor 15 min at room temperature in the dark. Samples were acquired on NovoCyteTM 2000 FlowCytometry System (ACEA, San Diego, CA, USA) equipped with 488 nm argon laser. Detection of 7-AAD emission was collected through a 675/30 nm filter in FL4 channel.

[2] = test system: K562 (chronic myeloid leukemia) cells; experiment: Cytotoxicity assay (7-AAD viability, flow cytometry), K562; type: cell-based, human; conditions: viable cells
Procedure: as §1, §2, §3

[3] = test system: U937 (histiocytic lymphoma) cells; experiment: Cytotoxicity assay (7-AAD viability, flow cytometry), U937; type: cell-based, human
Procedure: as §1, §2, §3

[4] = test system: HEK293 (embryonic kidney) cells; experiment: Cytotoxicity assay (7-AAD viability, flow cytometry), HEK293; type: cell-based, human; conditions: at least three experiments in duplicate, viable cells
Procedure: as §1
(§4) HEK293, HeLa cell lines and fibroblasts were cultured as monolayers and maintained in Dulbecco’s modified Eagle’s medium (DMEM, Gibco BRL, Waltham, MA, USA) supplemented with 10% foetal bovine serum and 1% penicillin-streptomycin solution at 37 °C in a humidified incubator under a 5% CO2 atmosphere.
as §2, §3

[5] = test system: HeLa (cervical cancer) cells; experiment: Cytotoxicity assay (7-AAD viability, flow cytometry), HeLa; type: cell-based, human; conditions: mean ± SE, at least three experiments in duplicate, viable cells
Procedure: as §1, §4, §2, §3

normal human fibroblasts = experiment: Cytotoxicity assay (7-AAD viability, flow cytometry), normal fibroblasts; type: cell-based; conditions: mean ± SE, at least three experiments in duplicate
Procedure: as §1, §4, §2
as §3, with “Cells were treated of test compounds with six different concentrations (1, 5, 10, 15, 30 and 60 μM).” left out

[6] = Homo sapiens, Jurkat, mean ± SE, at least three experiments in duplicate, read-out: IC50 Jurkat
[7] = Homo sapiens, K562, mean ± SE, at least three experiments in duplicate, read-out: IC50 K562
[8] = Homo sapiens, U-937, mean ± SE, at least three experiments in duplicate; viable cells; read-out: IC50 U937
[9] = Homo sapiens, HEK293, mean ± SE
[10] = read-out: IC50 U937; mean ± SE, at least three experiments in duplicate; viable cells

SMILES	IC50 [1, 6] [µM]	IC50 [2, 7] [µM]	IC50 [3, 8] [µM]	IC50 [4, 9] [µM]	IC50 ([5]; Homo sapiens, HeLa) [µM]	IC50 (normal human fibroblasts; Homo sapiens, Fibroblast) [µM]	IC50 ([1]; read-out: IC50 Jurkat, mean ± SE, at least three experiments in duplicate) [µM]	IC50 ([2]; read-out: IC50 K562, mean ± SE, at least three experiments in duplicate) [µM]	IC50 [3, 10] [µM]	IC50 ([4]; mean ± SE) [µM]	IC50 [5] [µM]	IC50 (normal human fibroblasts) [µM]	increase in cytotoxic activity against Jurkat cells in comparison with dihydrobetulinic acid 2 [1]	SI (selectivity towards Jurkat cells) [1]	IC50 ([2]; mean ± SE, at least three experiments in duplicate, read-out: IC50 K562) [µM]	IC50 ([3]; mean ± SE, at least three experiments in duplicate; viable cells; read-out: IC50 U937) [µM]	IC50 ([1]; Homo sapiens, Jurkat, read-out: IC50 Jurkat, mean ± SE, at least three experiments in duplicate) [µM]	IC50 ([2]; Homo sapiens, K562, read-out: IC50 K562, mean ± SE, at least three experiments in duplicate) [µM]
CC(=O)O[C@H]1CC[C@@]2(C)C(CC[C@]3(C)C2CCC2C4C(C(C)C)CC[C@]4(C(=O)NCCNC(=N)N)CC[C@]23C)C1(C)C (stereo partly drawn) [Compound 10b, 3β-N-(2-Ethylgyanidine)-3-O-acetyl-lupane-28-amide hydrochloride]	67 ± 0.21	98 ± 0.35	82 ± 0.14	128 ± 0.35	152 ± 0.49	354 ± 0.46												
CC(=O)O[C@H]1CC[C@@]2(C)C(CC[C@]3(C)C2CCC2C4C(C(C)C)CC[C@]4(C(=O)NCCN(CCNC(=N)N)CCNC(=N)N)CC[C@]23C)C1(C)C (single isomer, unassigned) [Compound 12b, 3β-N-[2-(N,N′-bis-Ethylgyanidine)-aminoethyl]-3-O-acetyl-lupane-28-amide dihydrochloride]							14 ± 0.37	52 ± 0.26	13 ± 0.06	68 ± 0.29	72 ± 0.34	106 ± 0.23						
CC(C)C1CC[C@]2(C(=O)NCCCCNC(=N)N)CC[C@]3(C)C(CCC4[C@@]5(C)CCC(=O)C(C)(C)C5CC[C@]43C)C12 (stereo partly drawn) [Compound 9b, N-(4-Butylgyanidine)-3-oxolupane-28-amide dihydrochloride]	21 ± 0.24	57 ± 0.36	14 ± 0.16	92 ± 0.34	81 ± 0.19	179 ± 0.43							approximately 3 fold	8.5				
CC(=O)O[C@H]1CC[C@@]2(C)C(CC[C@]3(C)C2CCC2C4C(C(C)C)CC[C@]4(C(=O)NCCCCNC(=N)N)CC[C@]23C)C1(C)C (stereo partly drawn) [Compound 11b, 3β-N-(4-Butylgyanidine)-3-O-acetyl-lupane-28-amide hydrochloride]	16 ± 0.18	55 ± 0.38	63 ± 0.29	98 ± 0.27	106 ± 0.51	117 ± 0.38							approximately 3 fold	7.3				
CC(=O)O[C@H]1CC[C@@]2(C)C(CC[C@]3(C)C2CC=C2C4[C@@H](C)[C@H](C)CC[C@]4(C(=O)OCC(CO)(CO)NC(=N)N)CC[C@]23C)C1(C)C (single isomer, unassigned) [Compound 18b, 3β-[2-Guanidine-3-hydroxy-2-(hydroxymethyl)propyl]-3-O-acetyl-urs-12-en-28-oate trifluoroacetate]	6.8 ± 0.32			13 ± 0.19	11 ± 0.27	47 ± 0.15									40 ± 0.29	2.1 ± 0.41		
CC(=O)O[C@H]1CC[C@@]2(C)C(CC[C@]3(C)C2CCC2C4C(C(C)C)CC[C@]4(C(=O)NCCCN4CCN(CCCNC(=N)N)CC4)CC[C@]23C)C1(C)C (stereo partly drawn) [Compound 13a, 3β-N-{[3-(3-Propylguanidine)piperazinyl]propyl}-3-O-acetyl-lupane-28-amide trifluoroacetate]	24 ± 0.27	11 ± 0.33	18 ± 0.21	74 ± 0.15	79 ± 0.29	104 ± 0.26												
CC(=O)O[C@H]1CC[C@@]2(C)C(CC[C@]3(C)C2CC=C2C4CC(C)(C)CC[C@]4(C(=O)OCC(CO)(CO)NC(=N)N)CC[C@]23C)C1(C)C (stereo partly drawn) [Compound 20b, 3β-[2-Guanidine-3-hydroxy-2-(hydroxymethyl)propyl]-3-O-acetyl-olean-12-en-28-oate trifluoroacetate]	6.7 ± 0.15	20 ± 0.14	6.1 ± 0.43	12 ± 0.23	13 ± 0.41	49 ± 0.25												
CC(C)C1CC[C@]2(C(=O)NCCCCNC(=N)N)CC[C@]3(C)C(CCC4[C@@]5(C)CC[C@H](O)C(C)(C)C5CC[C@]43C)C12 (stereo partly drawn) [Compound 14, 3β-N-(4-Butylgyanidine)-3-hydroxy-lupane-28-amide]	17 ± 0.34	36 ± 0.42	20 ± 0.12	59 ± 0.21	62 ± 0.24	96 ± 0.17							approximately 3 fold	5.6				
C[C@H]1[C@H](C)CC[C@]2(C(=O)O)CC[C@]3(C)C(=CC[C@@H]4[C@@]5(C)CC[C@H](O)C(C)(C)[C@@H]5CC[C@]43C)[C@H]12 [UA, ursolic acid, reference compound]	23 ± 0.34	68 ± 0.11	17 ± 0.12	96 ± 0.22	88 ± 0.35	324 ± 0.16												
CC1(C)CC[C@]2(C(=O)O)CC[C@]3(C)C(=CC[C@@H]4[C@@]5(C)CC[C@H](O)C(C)(C)[C@@H]5CC[C@]43C)[C@@H]2C1 [OA, oleanolic acid, reference compound]	271 ± 0.19	235 ± 0.24	186 ± 0.18	247 ± 0.27	258 ± 0.31	694 ± 0.17												
CC(=O)O[C@H]1CC[C@@]2(C)C(CC[C@]3(C)C2CCC2C4C(C(C)C)CC[C@]4(C(=O)NCCN(CCNC(=N)N)CCNC(=N)N)CC[C@]23C)C1(C)C (single isomer, unassigned) [Compound 12a, 3β-N-[2-(N,N′-bis-Ethylgyanidine)-aminoethyl]-3-O-acetyl-lupane-28-amide trifluoroacetate]				112 ± 0.19	101 ± 0.22	149 ± 0.43			28 ± 0.25								22 ± 0.21	89 ± 0.18
